Read-outs that look alike come from different tables or passages of the source.
What was measured:
Recombinant human FGFR2 = Recombinant human FGFR2 (Homo sapiens, UniProt P21802); experiment: Transcreener Kinase Assay of FGFR2; assay type: biochemical
Protocol: Example 24: Transcreener Kinase Assay of FGFR2
• 1. […] Prepare Solution • Test compounds were solved in DMSO and were diluted with assay buffer to 5 folds of final concentration keeping the DMSO concentration at 5%. Further dilution are needed to make final concentrations are at 1, 0.33, 0.11, 0.037, 0.012, 0.004, 0.0014, 0.0005 μM; (the final concentration of DMSO is 1%). • Enzyme/Substrate stock Preparation: Recombinant human FGFR2 and Poly E4Y are both diluted in assay buffer. The final concentration is 0.3 ng/μL for FGFR2 and 62.5 ng/μL for Poly E4Y. The mixture is being kept in ice before use; • Prepare ATP Diluents, 10 mM ATP is diluted in assay buffer, the final concentration is 25 μM; • Prepare ADP Diluents: diluted ADP (500 μM) in assay buffer, the final concentration is 25 μM; • Prepare ATP standard curve stock as following:
• 3. Enzymatic Reaction • In a 96-well plate, add 5 μL of deluted solution of test compound or control solution. (positive control: 5 μL of 5% DMSO; negative control: 5 μL of 500 mM EDTA) into desired wells respectively; • Add 10 μL of Enzyme/Substrate stock into each well; • Add 10 μL of ATP Diluents to initiate the enzyme reaction and vortex the plate immediately on a plate shaker; • For the wells to make standard curve, add 5 μL of 5% DMSO, 10 μL of assay buffer and 10 μL of ATP standard curve stock. • Incubate the plate for 45 min at 28° C. on a plate shaker in a low speed. • 4. Stoping Reaction and Detecting ADP • Detection Mix Preparation: The mixture is made by dilution with MilliQ water; as following: ADP Alexa633 tracer (1:100), ADP antibody (1:158), and stop & detect buffer (1:10); • Tracer Only control Preparation: The mixture is made by dilution with MilliQ water; as following: ADP Alexa633 tracer (1:100), and stop & detect buffer (1: 10) • No Tracer control Preparation: stop & detect buffer is diluted with MilliQ water; by 10 fold. • Add 25 μL of detection mix, Tracer Only control and No Tracer control into corresponding wells, respectively; • Incubate at 28° C. for 1 h, on a plate shaker in a low speed; • Measure florescence polarization (mP) on TECAN F500. Excitation wavelength: 610 nm, Emission wavelength: 670 nm. • 5. Data Analysis
(§1) [formula] Note: • [ADP] in Compound well represents the ADP concentration in test compound well. • [ADP] in Positive control well represents the ADP concentration in 5% DMSO well • Conversion of mP value to ADP concentration is calculated based on the formula which determined by standard curve. And mP value is measured by following the instruction provided by BellBrook Labs. (www.bellbrooklabs.com). • 6. IC50: determined with add-in software for Microsoft Excel, XLfit™ (version 2.0) from ID Business Solutions (Guildford, UK).

Recombinant human FGFR1 = Recombinant human FGFR1 (Homo sapiens, UniProt P11362); experiment: Transcreener Kinase Assay of FGFR1; assay type: biochemical
Recombinant human FGFR1, sequence (P11362 22-822): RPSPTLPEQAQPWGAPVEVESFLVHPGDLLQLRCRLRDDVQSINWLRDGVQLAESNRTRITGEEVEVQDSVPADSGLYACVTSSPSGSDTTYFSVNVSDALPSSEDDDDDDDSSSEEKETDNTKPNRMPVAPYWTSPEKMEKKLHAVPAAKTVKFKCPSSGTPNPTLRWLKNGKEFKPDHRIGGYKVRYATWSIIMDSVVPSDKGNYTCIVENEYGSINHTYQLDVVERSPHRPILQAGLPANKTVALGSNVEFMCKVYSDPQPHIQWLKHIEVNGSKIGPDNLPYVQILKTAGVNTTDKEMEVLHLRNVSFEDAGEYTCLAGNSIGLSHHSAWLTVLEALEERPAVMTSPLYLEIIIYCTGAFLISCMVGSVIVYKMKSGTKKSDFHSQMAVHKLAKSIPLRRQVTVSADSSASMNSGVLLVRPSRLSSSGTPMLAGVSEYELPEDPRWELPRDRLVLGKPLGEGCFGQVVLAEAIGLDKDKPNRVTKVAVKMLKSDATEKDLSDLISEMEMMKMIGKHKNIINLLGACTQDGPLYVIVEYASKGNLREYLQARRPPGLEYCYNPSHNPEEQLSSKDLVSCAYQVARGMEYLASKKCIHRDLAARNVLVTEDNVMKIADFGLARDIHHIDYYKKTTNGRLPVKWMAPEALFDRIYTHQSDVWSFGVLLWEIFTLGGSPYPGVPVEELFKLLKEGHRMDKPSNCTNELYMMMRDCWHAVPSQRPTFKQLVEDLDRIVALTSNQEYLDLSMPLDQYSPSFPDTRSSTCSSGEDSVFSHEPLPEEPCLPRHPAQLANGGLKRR
Protocol: • 1. […] Prepare Solution • Test compounds were solved in DMSO and were diluted with assay buffer to 5 folds of final concentration keeping the DMSO concentration at 5%. Further dilution are needed to make final concentrations are at 1, 0.33, 0.11, 0.037, 0.012, 0.004, 0.0014, 0.0005 μM; (the final concentration of DMSO is 1%). • Enzyme/Substrate stock Preparation: Recombinant human FGFR1 and Poly E4Y are both diluted in assay buffer.
• 3. Enzymatic Reaction • In a 96-well plate, add 5 μL of diluted solution of test compound or control solution. (positive control: 5 μL of 5% DMSO; negative control: 5 μL of 500 mM EDTA) into desired wells respectively; • Add 10 μL of Enzyme/Substrate stock into each well; • Add 10 μL of ATP Diluents to initiate the enzyme reaction and vortex the plate immediately on a plate shaker; • For the wells to make standard curve, add 5 μL of 5% DMSO, 10 μL of assay buffer and 10 μL of ATP standard curve stock. • Incubate the plate for 45 min at 28° C. on a plate shaker in a low speed. • 4. […] Excitation wavelength: 610 nm, Emission wavelength: 670 nm. • 5. Data Analysis
as §1

FGFR3 kinase = FGFR3 kinase (Homo sapiens, UniProt P22607); experiment: Z-Lyte Kinase Assay of FGFR3; assay type: biochemical
FGFR3 kinase, sequence (P22607 23-806): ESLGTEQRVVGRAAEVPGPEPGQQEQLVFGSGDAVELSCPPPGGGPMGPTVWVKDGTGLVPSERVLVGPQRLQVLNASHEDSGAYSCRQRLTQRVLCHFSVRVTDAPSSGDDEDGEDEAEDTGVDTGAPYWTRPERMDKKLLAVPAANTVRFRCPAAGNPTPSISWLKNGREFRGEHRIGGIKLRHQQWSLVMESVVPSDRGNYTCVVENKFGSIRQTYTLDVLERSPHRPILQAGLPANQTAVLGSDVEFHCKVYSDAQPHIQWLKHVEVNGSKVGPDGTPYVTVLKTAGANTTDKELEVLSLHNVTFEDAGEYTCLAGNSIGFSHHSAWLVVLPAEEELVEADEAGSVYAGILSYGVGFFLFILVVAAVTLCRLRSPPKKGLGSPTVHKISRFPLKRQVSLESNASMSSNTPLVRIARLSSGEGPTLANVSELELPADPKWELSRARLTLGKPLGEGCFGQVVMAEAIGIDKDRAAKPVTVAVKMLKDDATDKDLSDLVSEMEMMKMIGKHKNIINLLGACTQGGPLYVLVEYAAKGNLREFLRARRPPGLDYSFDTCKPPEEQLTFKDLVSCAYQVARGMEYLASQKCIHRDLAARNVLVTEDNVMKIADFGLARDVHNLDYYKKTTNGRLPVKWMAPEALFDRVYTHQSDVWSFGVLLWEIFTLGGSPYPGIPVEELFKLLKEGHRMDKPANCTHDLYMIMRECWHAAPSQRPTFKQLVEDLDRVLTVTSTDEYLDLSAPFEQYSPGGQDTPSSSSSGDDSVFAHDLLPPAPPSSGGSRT
Protocol: Example 25: Z-Lyte Kinase Assay of FGFR3
• 1. Materials and Reagents:
• 2. Reaction Steps: Plate Map
• 3. […] The final concentrations are 1, 0.33, 0.11, 0.037, 0.012, 0.004, 0.0014, 0.00046 μM, and the final concentration of DMSO is 2%. • 3) Kinase/Peptide Mixture (P/K solution): Prepare Kinase/Peptide Mixture by diluting the kinase to 0.7 μg/ml and the Z-LYTE™ Tyr 4 peptide to 4 μM in 1.33× Kinase Buffer. Mix gently by pipetting. • 4) Phospho-peptide Solution (PP solution): Add 0.4 μl of Z-LYTE™ Tyr 4 Phospho-peptide to 99.6 μl of 1.33× Kinase Buffer. • 5) ATP Solution: Prepare ATP Solution by diluting the 10 mM of ATP in 1.33× Kinase Buffer to 300 uM. • 6) Development Solution: Dilute Development Reagent B with Development Buffer as 1:128. • 4. […] Shake the plate for 30 Sec and centrifuge (1500 rpm, 1 min). • Seal the plate to protect from the light and incubate the plate for 1 hour at RT (25-30° C.). • 2) Development reaction • Add 5 μl of the Development solution to all wells. • Shake the plate for 30 Sec and centrifuge (1500 rpm, 1 min). • Seal the plate to protect from the light and incubate the plate for 1 hour at RT (25-30° C.). • 3) Stop and Read • Add 5 μl of the Stop reagent to all wells. • Shake the plate for 30 Sec and centrifuge (1500 rpm, 1 min). • Measure the value of Coumarin (Ex400 nm, Em445 nm) and fluorescein (Ex400 nm, Em520 nm), respectively. • 5. Data Analysis Emission Ratio(ER)=Coumarin Emission (445 nm)/Fluorescein Emission (520 nm) % Phosphorylation=1−[ER×C3520nm-C3445nm]/[(C1445nm-C3445nm)+ER×(C3520nm−C1520nm)] Inhibition rate (IR)=1−% Photest Cpd/% PhoC2 • 6. IC50 Value: determined with add-in software for Microsoft Excel, XLfit™ (version 2.0) from ID Business Solutions (Guildford, UK)

SNU-16 = experiment: Cellular Proliferation Assay (Cell Counting Kit-8), SNU-16; assay type: cell-based; details: Homo sapiens; SNU-16 cells, 72 hours
Protocol: (§2) Example 26: Cellular Proliferation Assay
(§3) • 1. Cell Line • KG-1 (ATCC Accession No. CCL-246), • SNU-16 (ATCC Accession No. CRL-5974), • RT-112 (ECACC Accession No. 85061106) • 2. Assay Protocol • FGFR related cancer cell proliferation is measured in 96-well plates using Cell Counting Kit-8 (Dojindo CK04-13). • Seed 30000 cells/well of KG1, 5000 cells/well of SNU16, and 1000 cells/well of RT112 in a volume of 100 μL/well in growth media. • After 24 hours, dilute the test compound to 10, 3.3, 1.1, 0.37, 0.12, 0.04, 0.013, 0.004 μM, keeping the DMSO concentration at 5%. • Add 10 μL of 8-point compound series to the wells of culturing cells. • Incubate at 37° C. and 5% CO2 for 72 hours • Add 10 μL/well of CCkit8 and incubate at 37° C. and 5% CO2 for an hour • Detect the optical density of each well at 450 nm on Labsystems Multiskan K3. • 3. Data Analysis
(§4) [formula] Note: • ODcompound well represents the optical density of cells treated with compound. • ODcell well represents the optical density of cells without compounds treatment.(only 0.5% DMSO) • ODcontrol well represents the optical density of culture media background • IC50: determined with add-in software for Microsoft Excel, XLfit™ (version 2.0) from ID Business Solutions (Guildford, UK).

KG-1 = experiment: Cellular Proliferation Assay (Cell Counting Kit-8), KG-1; assay type: cell-based; details: Homo sapiens; KG-1 cells, 72 hours; read-out: KG1 IC50
Protocol: as §2, §3, §4

RT-112 = experiment: Cellular Proliferation Assay (Cell Counting Kit-8), RT-112; assay type: cell-based; details: Homo sapiens; RT-112 cells, 72 hours
Protocol: as §2, §3, §4

Recombinant human FGFR2, sequence (P21802 22-821): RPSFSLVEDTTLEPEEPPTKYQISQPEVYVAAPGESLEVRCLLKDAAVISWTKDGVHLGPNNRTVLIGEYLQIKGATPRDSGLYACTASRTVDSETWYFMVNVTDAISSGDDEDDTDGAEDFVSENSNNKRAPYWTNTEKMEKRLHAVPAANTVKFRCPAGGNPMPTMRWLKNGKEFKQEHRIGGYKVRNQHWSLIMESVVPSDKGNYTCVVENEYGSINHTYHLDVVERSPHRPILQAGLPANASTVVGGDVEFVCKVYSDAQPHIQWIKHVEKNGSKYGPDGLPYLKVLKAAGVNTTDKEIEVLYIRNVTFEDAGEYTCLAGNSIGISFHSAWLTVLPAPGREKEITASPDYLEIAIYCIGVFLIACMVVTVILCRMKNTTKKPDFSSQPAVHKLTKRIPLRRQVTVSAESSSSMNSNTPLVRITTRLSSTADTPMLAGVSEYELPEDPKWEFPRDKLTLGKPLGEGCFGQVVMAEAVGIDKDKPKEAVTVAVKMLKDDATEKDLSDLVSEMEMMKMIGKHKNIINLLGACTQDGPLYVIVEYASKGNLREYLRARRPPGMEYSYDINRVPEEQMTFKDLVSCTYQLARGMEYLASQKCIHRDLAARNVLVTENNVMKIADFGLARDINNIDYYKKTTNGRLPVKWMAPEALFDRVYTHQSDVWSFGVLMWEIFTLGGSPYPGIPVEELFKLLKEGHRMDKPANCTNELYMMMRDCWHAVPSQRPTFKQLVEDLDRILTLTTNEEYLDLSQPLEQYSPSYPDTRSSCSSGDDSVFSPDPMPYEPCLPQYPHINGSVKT

IC50 (Recombinant human FGFR2; read-out: FGFR2 (FP) IC50) [nM] | IC50 (Recombinant human FGFR1; read-out: FGFR1 (FP) IC50) [nM] | IC50 (FGFR3 kinase) [nM] | Structure (SMILES) | also measured
5 | 7 | 6 | CCN1CCN(c2ccc(Nc3ncc(CCc4cc(C(=O)NC)cc(OC)c4F)cn3)cc2OC)CC1 [Compound 157] | –
87 | 99 | 132 | CCN1CC[C@H](n2cc(Nc3ncc(CCc4cc(C(=O)NC)cc(OC)c4F)cn3)cn2)C1 [Compound 191] | –
10 | 14 | 8 | CNC(=O)c1cc(COc2cnc(Nc3cnn(C[C@@H](O)CO)c3)nc2)c(F)c(OC)c1 [Compound 219] | –
10 | 17 | 8 | CNC(=O)c1cc(COc2cnc(Nc3cnn(C[C@H](O)CO)c3)nc2)c(F)c(OC)c1 [Compound 220] | –
14 | 28 | 9 | CNC(=O)c1cc(COc2cnc(Nc3ccc(C4CCNCC4)nc3)nc2)c(F)c(OC)c1 [Compound 236] | –
15 | 28 | 17 | CNC(=O)c1cc(COc2cnc(Nc3ccc(C4CCNCC4)c(OC)c3)nc2)c(F)c(OC)c1 [Compound 258] | –

Continued, compound first:

Structure (SMILES) | IC50 (Recombinant human FGFR2; read-out: FGFR2 (FP) IC50) [nM] | IC50 (Recombinant human FGFR1; read-out: FGFR1 (FP) IC50) [nM] | IC50 (FGFR3 kinase) [nM] | also measured
CCn1cc(Nc2ncc(/C=C/c3cc(C(=O)NC)cc(OC)c3Br)cn2)cn1 [Compound 3] | 28 | 28 | 188 | –
CNC(=O)c1cc(CCc2cnc(Nc3cccc(N4C[C@@H](C)N[C@@H](C)C4)c3)nc2)cc(OC)c1 [Compound 12] | – | – | – | IC50 (SNU-16): 266 nM
CNC(=O)c1cc(CCc2cnc(Nc3cnn(CC(F)(F)F)c3)nc2)c(F)c(OC)c1 [Compound 35] | 10 | – | – | –
CCOc1cc(CCc2cnc(Nc3ccc(N4CCN(CC)CC4)cc3)nc2)cc(C(=O)NOC)c1 [Compound 50] | – | – | – | IC50 (SNU-16): 581 nM; IC50 (KG-1): 387 nM
CCN1CCN(c2ccc(Nc3ccc(CCc4cc(OC)cc(C(=O)NOC)c4)cn3)cc2)CC1 [Compound 73] | 8 | 9 | 25 | IC50 (SNU-16): 65 nM; IC50 (RT-112): 493 nM; IC50 (KG-1): 70 nM
CNC(=O)c1cc(CCc2cnc(Nc3ccc(N)cc3)nc2)c(Cl)c(OC)c1 [Compound 80] | 11 | 10 | 13 | IC50 (SNU-16): 18 nM; IC50 (RT-112): 44 nM; IC50 (KG-1): 13 nM
CNC(=O)c1cc(CCc2cnc(Nc3cnn([C@@H]4CCOC4)c3)nc2)c(F)c(OC)c1 [Compound 136] | 7 | 10 | – | IC50 (RT-112): 166 nM; IC50 (KG-1): 29 nM
CNC(=O)c1cc(CCc2cnc(Nc3cnn([C@H]4CCOC4)c3)nc2)c(F)c(OC)c1 [Compound 137] | 5 | 9 | 13 | IC50 (SNU-16): 18 nM
CNC(=O)c1cc(COc2cnc(Nc3ccc(N4C[C@@H](C)N[C@@H](C)C4)nc3)nc2)c(F)c(OC)c1 [Compound 257] | – | – | – | IC50 (KG-1): 103 nM
CNC(=O)c1cc(COc2cnc(Nc3ccc(N4C[C@@H]5CCN(C)[C@@H]5C4)c(OC)c3)nc2)c(F)c(OC)c1 [Compound 293] | – | – | – | IC50 (Recombinant human FGFR2; FP): 8 nM; IC50 (Recombinant human FGFR1; FP): 18 nM; IC50 (FGFR3 kinase; Z-lyte): 11 nM
CNC(=O)c1cc(COc2cnc(Nc3ccc(N4CCN(C5CC5)CC4)c(OC)c3)nc2)c(F)c(OC)c1 [Compound 294] | – | – | – | IC50 (Recombinant human FGFR2; FP): 6 nM; IC50 (Recombinant human FGFR1; FP): 14 nM; IC50 (FGFR3 kinase; Z-lyte): 5 nM
CNC(=O)c1cc(COc2cnc(Nc3ccc(N4CCN(C5CCCC5)CC4)c(OC)c3)nc2)c(F)c(OC)c1 [Compound 302] | – | – | – | IC50 (Recombinant human FGFR2; FP): 7 nM; IC50 (Recombinant human FGFR1; FP): 12 nM; IC50 (FGFR3 kinase; Z-lyte): 9 nM

From patent US9701680B2, “Pyrimidine and pyridine compounds and their usage” (HUTCHISON MEDIPHARMA LIMITED, priority 2013, dated 2017)
